# Laboratory results as given in article PMC8653149, “Cyclic Analogs of Desferrioxamine E Siderophore for ^68Ga Nuclear Imaging: Coordination Chemistry and Biological Activity in Staphylococcus aureus” (Inorganic Chemistry, 2021).
# Entries after “also recorded” stand apart in the source; their conditions may differ. Where two headings read alike, the source gives them in different places. Marks after values point to notes of the source that are not given here.
# Legend:
# [1] = cited from earlier work
# [2] = cited from earlier work; remark: listed apart in the source
# [3] = parameters: method as in PMID 11673947; settings: cited from earlier work
# [4] = parameters: method as in Ref 3 (supplement); settings: ref Ref 3 (supplement); cited from earlier work
# [5] = Ga(III) complex stability constants by Fe(III)–Ga(III) metal–metal competition, potentiometric and UV–vis pH-metric titrations; assay type: physicochemical
# From the text: The next step was to determine the coordination specificity of investigated ligands toward Ga(III) ions. This is a somewhat challenging task because it requires indirect methods since the investigated complexes started to form in a very acidic environment, where potentiometric measurements were not accurate owing to the error of the glass electrode,[55],[56] and gallium is spectroscopically silent in UV–vis. To bypass this inconvenience, we implemented metal–metal competition assays. After addition of a significant molar excess of Ga(III), the LMCT band of Fe(III)-FOXE analog complexes was almost fully silenced as Ga(III) replaced Fe(III) in its complexes (Figure S5). By implementing those spectral changes, we were able to calculate the stability constants of the Ga(III)-FOXE analog species present below or around pH 2, [GaHL]^+ (Table S8). Stability constants for the [GaL] species, present above pH 2, could be determined by potentiometric titrations for Ga(III)-FOX 2-2, 2-3, 2-4, and 3-5, with logβ of [GaHL]^+ fixed in the calculations (Table S8). For Ga(III)-FOX 2-5, we could not observe any deprotonation step using this methodology. To confirm this behavior, UV–vis titration of the Ga(III)-FOX 2-5 analog complex was performed in the 200–300 nm spectral range (Figure S6) corresponding to the hydroxamate groups’ protonation state.[57]−[59] […] Above pH 4, there were no significant changes in maxima localization or absorbance intensity. Above pH 9, absorbance started to rise again, which indicated complex dissociation. […] Overall, the data indicated a decreased stability of [GaL] species when decreasing or increasing the ring size of Ga(III)-FOX 2-5, as reflected by pKNHOH (Table S8). Implementing this full coordination specification of Ga(III)-FOX complexes, we were able to calculate speciation plots which are presented in Figure 1 for the most efficient analogs FOX 2-4 and FOX 2-5, given here as examples, and in Figure S7 for others.
# Proposed biomimetic analogs of cyclic siderophore FOXE bind Fe(III) ions starting from pH around 0, and the complexation is essentially complete far below or around pH of 2. Therefore, the stability constants of the first species formed in solution were determined from the spectrophotometric pH-dependent batch titrations carried out in the pH range of around 0.1–2 (Figure S3), by following the changes in the intense LMCT band of the metal complex. These values were further used as constant values in spectrophotometric or potentiometric titrations carried out in the pH range from 2 to 11 (Figure S3) to get the overall stability constants, logβFeL (Table S5). Since Ga(III)-FOX complexes present similar coordination properties, the first species start to form below pH 2 as well. However, in this case, we have used indirect methods to determine stability constants for Ga(III)-FOXE analogs and the Ga(III) complex with native FOXE, as Ga(III) complexes are spectroscopically silent in the UV–vis region. Metal–metal competition titrations were carried out at pH 1.6 for FOX 2-5 and FOX 2-4 and at pH 2 for the rest of the analogs and the native compound. The intense LMCT band of the Fe(III) complex was silenced after addition of a fixed volume of Ga(III) ions (Figure S5).
# Potentiometric titrations were performed using an automatic titrator system Titrando 905 (Metrohm) equipped with a 800 Dosino dosing unit and a microburet with a volume of 2 mL. A combined glass electrode was calibrated each day for hydrogen ion concentration by 0.1 M HClO4 with CO2-free 0.1 M NaOH solutions. A stream of high purity grade argon, presaturated with water vapor, passed over the surface of the solution cell, filled with 3 mL of the studied solution. For each system, a minimum of four independent titrations was performed. […]
# [6] = Water solubility of the ligands; assay type: physicochemical; settings: H2O and H2O/DMSO 70/30 w/w mixture; concentrations used in assays
# Experimental: Elaborated solution thermodynamic studies combining several methods were performed in order to investigate those properties. Five FOXE analogs were water soluble in at least 1 × 10^–3 M concentration. […] Major results of physicochemical analysis for analogs characterized by most desirable properties are summarized below.
# [7] = Distribution coefficient (logD) of ^68Ga-labeled ligands between octanol and PBS
compound,measurement,setting,value
CC(=O)N(O)CCCCCNC(=O)CCC(=O)N(O)CCCCCNC(=O)CCC(=O)N(O)CCCCCN [DFOB],logβFe(III)L,[1],31.10 ^g
same,pFe(III),[1],26.3 ^f
same,logβGa(III)L,[2],27.56 ^g
same,pGa(III),[2],21.6 ^g
"transferrin: strong iron-binding ligand present in living organisms, literature comparator for pM",pFe(III),[1],25.6 ^h
same,pGa(III),[2],20.3 ^i
"O=C1CCC(=O)N(O)CCCCCNC(=O)CCC(=O)N(O)CCCCCNC(=O)CCC(=O)N(O)CCCCCN1 [FOXE, desferrioxamine E]",pFe(III),[1],27.3 ^c
same,E1/2 vs NHE,[3],–477 ^d mv
same,logβFe(II),[3],12.1 ^d
same,"protonation constant logβ, H2L + H+ ↔ H3L",[4],27.94
same,"protonation constant logβ, HL + H+ ↔ H2L",[4],19.31
same,"protonation constant logβ, L + H+ ↔ HL",[4],9.89
same,logβ[GaL],"[5]; UV-Vis (metal–metal competition) titrations, [L] = 1·10^-4 M, M:L 1:1, T = 25°C, I = 0.1 M NaClO4",29.79 (1)
same,pGa(III),"[5]; calculated, pH 7.4",25.2
same,logβGa(III)L,"[5]; potentiometric [L] = 1 × 10^–3 M and UV–vis 5 × 10^–5 M, M:L 1:1, T = 25 °C, I = 0.1 M NaClO4",29.79(1)
O=C1CCCCCCN(O)C(=O)CCNC(=O)CCCCCCN(O)C(=O)CCNC(=O)CCCCCCN(O)C(=O)CCN1 [FOX 2-6],solubility,[6],not water soluble in concentrations used during our assays; also recorded: not soluble in H2O nor in a H2O/DMSO 70/30 w/w mixture
same,logD at 20 min,[7],-0.58
